# Test results: patent US6525070B2, “Bipiperidine derivatives as modulators of CCR3 activity and as H1 antagonists” (AstraZeneca AB, priority 2000, dated 2003)
row,SMILES,melting point
1,"CS(=O)(=O)Nc1ccccc1C(=O)N1CCC(N2CCC(Oc3ccc(Cl)c(Cl)c3)CC2)CC1 [Compound 587 of Table I, N-{2-[4-(3,4-dichloro-phenoxy)-[1,4′]bipiperidinyl-1′-carbonyl]-phenyl}-methanesulfonamide]",219 to 220 °C
2,"O=S(=O)(c1ccc(-c2ccccn2)s1)N1CCC(N2CCC(Oc3ccc(Cl)c(Cl)c3)CC2)CC1 [Compound 280 of Table I, 4-(3,4-dichloro-phenoxy)-1′-(5-pyridin-2-yl-thiophene-2-sulfonyl)-[1,4′]bipiperidinyl]",149 to 150 °C
3,CS(=O)(=O)n1cc(C(=O)N2CCC(N3CCC(Oc4ccc(Cl)c(Cl)c4)CC3)CC2)c2ccccc21.Cl,104 to 105 °C
4,"O=C(Nc1ccccc1)N1CCC(N2CCC(Oc3ccc(Cl)c(Cl)c3)CC2)CC1 [Compound 309 of Table IV, 4-(3,4-dichloro-phenoxy)-[1,4′]bipiperidinyl-1′-carboxylic acid phenylamide]",111 to 112 °C
5,COc1cc(C(=O)N2CCC(N3CCC(Oc4ccc(Cl)cc4C)CC3)CC2)ccc1N.O=C(O)C(F)(F)F.O=C(O)C(F)(F)F,110 to 111 °C
6,"CS(=O)(=O)c1ccc(C(=O)N2CCC(N3CCC(Oc4ccc(Cl)c(Cl)c4)CC3)CC2)s1 [Compound 332 of Table I, [4-(3,4-dichloro-phenoxy)-[1,4′]bipiperidinyl-1′-yl]-(2-methanesulfonyl-thiophen-5-yl)-methanone]",82 to 83 °C
7,CC(=O)O.COc1cc(C(=O)N2CCC(N3CCC(Oc4ccc(Cl)c(Cl)c4)CC3)CC2)ccc1N,181 to 182 °C
8,"Cc1cc(Cl)ccc1OC1CCN(C2CCN(C(=O)c3cccc(S(C)(=O)=O)c3)CC2)CC1 [Compound 1 of Table IV, [4-(4-chloro-2-methyl-phenoxy)-[1,4′]bipiperidinyl-1′-yl]-(3-methanesulfonyl-phenyl)-methanone]",64 to 65 °C
9,"CCn1cc(C(=O)N2CCC(N3CCC(Oc4ccc(Cl)c(Cl)c4)CC3)CC2)c(=O)c2ccc(C)nc21 [Compound 534 of Table I, 3-[4-(3,4-dichloro-phenoxy)-[1,4′]bipiperidinyl-1′-carbonyl]-1-ethyl-7-methyl-1H-[1,8]naphthyridin-4-one]",189 to 190 °C
10,"CS(=O)(=O)c1cccc(NC(=O)N2CCC(N3CCC(Oc4ccc(Cl)c(Cl)c4)CC3)CC2)c1 [Compound 54 of Table IV, 4-(3,4-dichloro-phenoxy)-[1,4′]bipiperidinyl-1′-carboxylic acid (3-methanesulfonyl-phenyl)-amide]",73 to 75 °C

# Now from value to compound:
row,melting point,SMILES
1,111 to 112 °C,CC(=O)O.CS(=O)(=O)c1cccc(C(=O)N2CCC(N3CCC(Oc4ccc(Cl)c(Cl)c4)CC3)CC2)c1
2,76 to 77 °C,"O=C(C(CN1CCNCC1)c1ccccc1)N1CCC(N2CCC(Oc3ccc(Cl)c(Cl)c3)CC2)CC1 (centres unmarked) [Compound 595 of Table I, 1-[4-(3,4-dichloro-phenoxy)-[1,4′]bipiperidinyl-1′-yl]-2-phenyl-3-piperazin-1-yl-propan-1-one]"
3,150 to 152 °C,"CS(=O)(=O)Nc1cccc(C(=O)N2CCC(N3CCC(Oc4ccc(Cl)c(Cl)c4)CC3)CC2)c1 [Compound 583 of Table I, N-{3-[4-(3,4-dichloro-phenoxy)-[1,4′]bipiperidinyl-1′-carbonyl]-phenyl}-methanesulfonamide]"
4,78 to 80 °C,"CS(=O)(=O)c1ccccc1C(=O)N1CCC(N2CCC(Oc3ccc(Cl)c(Cl)c3)CC2)CC1 [Compound 293 of Table I, [4-(3,4-dichloro-phenoxy)-[1,4′]bipiperidinyl-1′-yl]-(2-methanesulfonyl-phenyl)-methanone]"
5,94 to 95 °C,Cc1cccc(OC2CCN(C3CCN(C(=O)c4cccc(S(C)(=O)=O)c4)CC3)CC2)n1.O=C(O)C(F)(F)F
6,140 to 142 °C,CS(=O)(=O)c1cccc(C(=O)N2CCC(N3CCC(Oc4ccc(C(F)(F)F)cc4C#N)CC3)CC2)c1.O=C(O)C(F)(F)F
7,126 to 127 °C,"O=S(=O)(c1ccc(-c2ccccn2)s1)N1CCC(N2CCC(Oc3ccc(F)c(F)c3)CC2)CC1 [Compound 3 of Table II, 4-(3,4-difluoro-phenoxy)-1′-(5-pyridin-2-yl-thiophene-2-sulfonyl)-[1,4′]bipiperidinyl]"
